According to patent US8394969B2, “Cyclic benzimidazole derivatives useful as anti-diabetic agents” (Merck Sharp & Dohme Corp., priority 2008, dated 2013):
pEC50: −log10 of the molar value. Structures can show the parent of a compound that is named as a salt. Where two headings read alike, the source gives them in different places.

Biological target: recombinant human AMPK complex 1 (containing α1β1γ1) (Homo sapiens, UniProt Q13131+Q9Y478)
Test: […] (in vitro AMPK activation assay)
Format: biochemical
Settings: for Emax: basal activity subtracted; for pEC50: read-out: EC50
Experimental: Recombinant viruses were generated by cotransfection of AMPK/pBacPak9 clones with Baculogold baculovirus DNA (Pharmingen) in spodoptera frugiperda 21 cells according to the manufacturer's instructions. Each round of virus amplification was performed for 5 days in Grace's medium containing 10% serum. Virus that had been subjected to three rounds of amplification was used for all protein production procedures. To express the AMPK complex, sf21 cells were adapted to serum free medium (SF900 II, Invitrogen) by sequential dilution from serum containing stocks into SF900 II medium and maintained in shaker flasks at 90 rpm at 27° C. The recombinant AMPK enzyme complex was produced by triple infection, one recombinant virus for each of the subunits, in sf21 cells under serum free conditions. […] Cells were harvested by centrifugation at 10,000×g for 15 minutes after 72 hours of infection with viruses. The insect cell pellet from 2 liters of culture was resuspended in 50 ml lysis buffer (20 mM Tris-HCl, 50 mM NaCl, 50 mM NaF, 30 mM Na PPi, 0.25 M sucrose, 10 mM ZnCl2, 2 mM DTT, 0.4 mg/ml digitonin) and subjected to two cycles of freeze-thaw lysis in a dry-ice ethanol bath. Insoluble material was removed by centrifugation at 10,000×g and the supernatant was fractionated with use of polyethylene glycol (PEG).
The total in vitro AMPK activation assay volume is 50 μl in a 96-well plate. […] The reaction was initiated with addition of the enzyme. After 30-minute incubation at 30° C., the reaction was stopped by addition of 80 μl 1% H3PO4. Aliquots (100 μl) were transferred to 96-well MultiScreen plates (MAPHNOB50; Millipore Corp., Bedford, Mass., USA). The plate was washed three times with 1% H3PO4 followed by detection in a Top-count. The counts per minute from the basal activity (the reaction without activator) was subtracted from each well and the data were expressed as % maximum AMP activation followed by EC50 calculation.

[1] = recombinant human AMPK complex 1 (α1β1γ1), read-out: % Maximum AMP Activation of human AMPK Complex 1
[2] = recombinant human AMPK complex 1 (α1β1γ1)
[3] = read-out: % Maximum AMP Activation of human AMPK Complex 1, recombinant human AMPK complex 1 (α1β1γ1)

Chain of recombinant human AMPK complex 1 (containing α1β1γ1) (Q13131 whole entry): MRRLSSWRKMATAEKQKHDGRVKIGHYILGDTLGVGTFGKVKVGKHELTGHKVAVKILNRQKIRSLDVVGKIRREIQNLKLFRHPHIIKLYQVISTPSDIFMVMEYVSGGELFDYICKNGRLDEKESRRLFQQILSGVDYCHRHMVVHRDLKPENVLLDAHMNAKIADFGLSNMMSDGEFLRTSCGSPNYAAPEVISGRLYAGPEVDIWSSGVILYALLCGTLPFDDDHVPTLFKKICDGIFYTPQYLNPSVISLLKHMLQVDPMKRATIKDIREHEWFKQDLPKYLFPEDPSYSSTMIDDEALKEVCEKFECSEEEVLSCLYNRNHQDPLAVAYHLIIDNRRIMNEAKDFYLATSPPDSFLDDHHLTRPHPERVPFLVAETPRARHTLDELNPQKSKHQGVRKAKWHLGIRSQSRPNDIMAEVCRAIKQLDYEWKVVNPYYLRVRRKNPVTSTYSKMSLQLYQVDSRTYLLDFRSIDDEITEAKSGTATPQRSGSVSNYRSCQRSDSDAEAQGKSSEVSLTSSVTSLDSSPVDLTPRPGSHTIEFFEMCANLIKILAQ
Chain of recombinant human AMPK complex 1 (containing α1β1γ1) (Q9Y478 whole entry): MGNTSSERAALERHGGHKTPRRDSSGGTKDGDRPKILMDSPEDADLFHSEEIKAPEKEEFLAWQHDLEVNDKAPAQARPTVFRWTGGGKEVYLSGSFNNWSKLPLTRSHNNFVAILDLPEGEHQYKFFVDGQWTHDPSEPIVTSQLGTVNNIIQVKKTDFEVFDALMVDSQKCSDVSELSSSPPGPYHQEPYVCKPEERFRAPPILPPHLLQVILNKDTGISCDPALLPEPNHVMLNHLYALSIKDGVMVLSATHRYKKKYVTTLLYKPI
Chain of recombinant human AMPK complex 1 (containing α1β1γ1) (P54619 whole entry partner): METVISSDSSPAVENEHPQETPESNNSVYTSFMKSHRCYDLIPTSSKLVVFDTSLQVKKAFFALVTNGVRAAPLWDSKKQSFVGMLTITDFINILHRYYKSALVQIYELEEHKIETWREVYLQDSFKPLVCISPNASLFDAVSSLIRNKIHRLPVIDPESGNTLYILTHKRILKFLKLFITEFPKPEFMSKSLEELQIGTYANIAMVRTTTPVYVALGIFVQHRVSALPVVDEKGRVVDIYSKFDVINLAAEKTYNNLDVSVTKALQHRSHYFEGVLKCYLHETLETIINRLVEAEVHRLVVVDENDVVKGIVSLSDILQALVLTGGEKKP

SMILES | Emax [1] | other results
COc1ccc(-c2cc3nc(Oc4ccc(C)c(C(=O)O)c4)[nH]c3cc2Cl)c(F)c1.N [Example 342, Ammonium 5-{[6-chloro-5-(2-fluoro-4-methoxyphenyl)-1H-benzimidazol-2-yl]oxy}-2-methylbenzoate] | – | % Maximum AMP Activation of human AMPK Complex 1: greater than 80%
Cc1ccc(Oc2nc3cc(-c4ccc(-c5ccccc5)cc4)ccc3[nH]2)cc1C(=O)O [Example 207, 5-(5-Biphenyl-4-yl-1H-benzoimidazol-2-yloxy)-2-methyl-benzoic acid] | > 80% | –
Cc1ccc(Oc2nc3cc(-c4ccc5c(ccn5C)c4)c(F)cc3[nH]2)cc1C(=O)O [Example 249, 5-[6-Fluoro-5-(1-methyl-1H-indol-5-yl)-1H-benzoimidazol-2-yloxy]-2-methyl-benzoic acid] | > 80% | –
Cc1ccc(Oc2nc3cc(-c4ccc5nnn(C)c5c4)c(Cl)cc3[nH]2)cc1C(=O)O [Example 149, 5-[6-Chloro-5-(3-methyl-3H-benzotriazol-5-yl)-1H-benzoimidazol-2-yloxy]-2-methyl-benzoic acid] | > 80% | –
Cc1ccc(Oc2nc3cc(-c4ccc5[nH]cnc5c4)c(Cl)cc3[nH]2)cc1C(=O)O [Example 140, 2-(3-Carboxy-4-methyl-phenoxy)-6-chloro-1H,1′H-[5,5′]bibenzoimidazolyl-3-ium; chloride] | > 80% | –
COC(=O)c1cc(Oc2nc3cc(C#Cc4ccc(-c5cnco5)cc4)c(Cl)cc3[nH]2)ccc1C [Example 123, 5-[6-Chloro-5-(4-oxazol-5-yl-phenylethynyl)-1H-benzoimidazol-2-yloxy]-2-methyl-benzoic acid methyl ester] | > 80% | –
Cc1ccc(Oc2nc3cc(-c4ccc(C5CC5)cc4)c(Cl)cc3[nH]2)cc1C(=O)O [Example 230, 5-{[6-chloro-5-(4-cyclopropylphenyl)-1H-benzimidazol-2-yl]oxy}-2-methylbenzoic acid] | – | pEC50 [2]: 8.05
Cc1ccc(Oc2nc3cc(-c4cnc5ccccc5c4)c(Cl)cc3[nH]2)cc1C(=O)O [Example 148, 2-(3-carboxy-4-methylphenoxy)-6-chloro-5-quinolin-3-yl-1H-3,1-benzimidazol-3-ium chloride] | > 80% | –
O=C(O)C(O)c1cccc(Oc2nc3cc(-c4ccc(-c5ccccc5)cc4)c(Cl)cc3[nH]2)c1 (centres unmarked) [Example 19] | > 80% | –
Cc1ccc(Oc2nc3cc(-c4ccc(N5CCOCC5)cc4)c(Cl)cc3[nH]2)cc1C(=O)O [Example 179, 5-[6-Chloro-5-(4-morpholin-4-yl-phenyl)-1H-benzoimidazol-2-yloxy]-2-methyl-benzoic acid] | > 80% | –
Cc1ccc(Oc2nc3cc(-c4ccc(-c5ccc(O)cc5)cc4)c(Cl)cc3[nH]2)cc1C(=O)O [Example 104, 5-[6-Chloro-5-(4-hydroxy-biphenyl-4-yl)-1H-benzoimidazol-2-yloxy]-2-methyl-benzoic acid] | > 80% | –
CSc1ccc(-c2cc3nc(Oc4ccc(C)c(C(=O)O)c4)[nH]c3cc2Cl)cc1 [Example 343, Ammonium 5-({6-chloro-5-[4-(methylthio)phenyl]-1H-benzimidazol-2-yl}oxy)-2-methylbenzoate] | – | Emax [3]: > 80%
Cc1ccc(Oc2nc3cc(C#Cc4ccc(O)cc4)c(Cl)cc3[nH]2)cc1C(=O)O [Example 116, 5-[6-Chloro-5-(4-hydroxy-phenylethynyl)-1H-benzoimidazol-2-yloxy]-2-methyl-benzoic acid] | > 80% | –
O=C(O)c1cccc(Nc2nc3cc(C#Cc4ccccc4)c(Cl)cc3[nH]2)c1 [Example 139, 3-(6-Chloro-5-phenylethynyl-1H-benzoimidazol-2-ylamino)-benzoic acid] | > 80% | –
COc1ccc2cc(-c3cc4nc(Oc5ccc(C)c(C(=O)O)c5)[nH]c4cc3Cl)ccc2c1 [Example 145, 5-[6-Chloro-5-(6-methoxy-naphthalen-2-yl)-1H-benzoimidazol-2-yloxy]-2-methyl-benzoic acid] | > 80% | –
Cc1ccc(Oc2nc3cc(-c4ccc([S+](C)[O-])cc4)c(Cl)cc3[nH]2)cc1C(=O)O (centres unmarked) [Example 331, 2-(3-carboxy-4-methylphenoxy)-6-chloro-5-[4-(methylsulfinyl)phenyl]-1H-3,1-benzimidazol-3-ium formate] | > 80% | –

SMILES | Emax [1] | other results
Cc1ccc(Oc2nc3cc(C#Cc4ccc(C(O)C5CC5)cc4)c(Cl)cc3[nH]2)cc1C(=O)O (centres unmarked) [Example 88, 5-{6-Chloro-5-[4-(cyclopropyl-hydroxy-methyl)-phenylethynyl]-1H-benzoimidazol-2-yloxy}-2-methyl-benzoic acid] | > 80% | –
CC(=O)NS(=O)(=O)c1cccc(Oc2nc3cc(-c4ccc(-c5ccccc5)cc4)c(Cl)cc3[nH]2)c1 [Example 206, N-Acetyl-3-(5-biphenyl-4-yl-6-chloro-1H-benzoimidazol-2-yloxy)-benzenesulfonamide] | > 80% | –
COC(=O)c1cc(Oc2nc3cc(-c4ccc(-c5ccc(OC)nc5)cc4)c(Cl)cc3[nH]2)cc(C)c1C [Example 314, 5-{6-Chloro-5-[4-(6-methoxy-pyridin-3-yl)-phenyl]-1H-benzoimidazol-2-yloxy}-2,3-dimethyl-benzoic acid methyl ester] | > 80% | –
O=C(O)Cn1nnnc1Sc1nc2cc(-c3ccc(-c4ccccc4)cc3)c(Cl)cc2[nH]1 [Example 55, [5-(5-biphenyl-4-yl-6-chloro-1H-benzo-imidazol-2-ylsulfanyl)-tetrazol-1-yl]-acid, ammonium salt] | – | Emax [3]: > 80%
COC(=O)c1cc(Oc2nc3cc(-c4ccc(-c5ccccn5)cc4)c(Cl)cc3[nH]2)ccc1C [Example 165, 5-[6-Chloro-5-(4-pyridin-2-yl-phenyl)-1H-benzoimidazol-2-yloxy]-2-methyl-benzoic acid methyl ester] | > 80% | –
Cn1ccc2cc(-c3cc4nc(Oc5ccc(Cl)c(C(=O)O)c5)[nH]c4cc3Cl)ccc21 [Example 217, 2-Chloro-5-[6-chloro-5-(1-methyl-1H-indol-5-yl)-1H-benzoimidazol-2-yloxy]-benzoic acid] | > 80% | –
Cc1ccc(Oc2nc3cc(-c4ccc(-c5ccc(F)cc5)cc4)c(Cl)cc3[nH]2)cc1C(=O)O [Example 105, 5-[6-Chloro-5-(4′-fluoro-biphenyl-4-yl)-1H-benzoimidazol-2-yloxy]-2-methyl-benzoic acid] | > 80% | –
COc1ccc2cc(-c3cc4nc(Oc5cc(C)c(C)c(C(=O)O)c5)[nH]c4cc3Cl)ccc2c1 [Example 310, 5-[6-Chloro-5-(6-methoxy-naphthalen-2-yl)-1H-benzoimidazol-2-yloxy]-2,3-dimethyl-benzoic acid] | > 80% | –
Cc1ccc(Oc2nc3cc(-c4ccc5c(c4)OCCO5)c(Cl)cc3[nH]2)cc1C(=O)O [Example 360, 5-[6-Chloro-5-(2,3-dihydro-benzo[1,4]dioxin-6-yl)-1H-benzoimidazol-2-yloxy]-2-methyl-benzoic acid] | > 80% | –
O=C(O)c1cc(Oc2nc3cc(C#Cc4ccccc4)c(Cl)cc3[nH]2)cc(C(=O)O)c1 [Example 48, 5-(6-Chloro-5-phenylethynyl-1H-benzoimidazol-2-yloxy)-isophthalic acid] | > 80% | –
Cc1ccc(Oc2nc3cc(-c4ccc(C5(CO)CC5)cc4)c(Cl)cc3[nH]2)cc1C(=O)O [Example 262, 5-[(6-chloro-5-{4-[1-(hydroxymethyl)cyclopropyl]phenyl}-1H-benzimidazol-2-yl)oxy]-2-methylbenzoic acid] | – | pEC50 [2]: 8.52
Cc1ccc(Oc2nc3cc(-c4ccc5ccn(C)c5c4)c(Cl)cc3[nH]2)cc1C(=O)O [Example 284, 5-[6-Chloro-5-(1-methyl-1H-indol-6-yl)-1H-benzoimidazol-2-yloxy]-2-methyl-benzoic acid] | > 80% | –
Cc1ccc(Oc2nc3cc(-c4ccc5[nH]c(-c6ccccc6)cc5c4)c(Cl)cc3[nH]2)cc1C(=O)O [Example 278, 5-[6-Chloro-5-(2-phenyl-1H-indol-5-yl)-1H-benzoimidazol-2-yloxy]-2-methyl-benzoic acid] | > 80% | –
O=C(O)Cc1ccc(Oc2nc3cc(-c4ccc(-c5ccccc5)cc4)c(Cl)cc3[nH]2)cc1C(=O)O [Example 8, 5-(5-Biphenyl-4-yl-6-chloro-1H-benzoimidazol-2-yloxy)-2-carboxymethyl-benzoic acid] | > 80% | –
COC(=O)c1c(C)cc(Oc2nc3cc(-c4ccc(-c5ccccc5)cc4)c(Cl)cc3[nH]2)cc1C(=O)O [Example 12, 5-(5-Biphenyl-4-yl-6-chloro-1H-benzoimidazol-2-yloxy)-3-methyl-phthalic acid 2-methyl ester] | > 80% | –
Cc1ccc(Oc2nc3cc(C#Cc4cccc(O)c4)c(Cl)cc3[nH]2)cc1C(=O)O [Example 124, 5-[6-Chloro-5-(3-hydroxy-phenylethynyl)-1H-benzoimidazol-2-yloxy]-2-methyl-benzoic acid] | > 80% | –
